Patent publication US20230141569A1, “FLUORESCENT DYE, AND PREPARATION METHOD AND USES THEREOF” (FLUORESCENCE DIAGNOSIS (SHANGHAI) BIOTECH COMPANY LTD., priority 2020, published 2023)

Legend:
[1] = Viscosity response: fluorescence in glycerin vs methanol (Test Example 1); format: physicochemical; settings: final concentration 1×10^−5 M; for Glycerin/Methanol Fluorescence Intensity Ratio: excited at maximum excitation wavelength of each dye; for Maximum Excitation Wavelength (nm): glycerin and methanol
[2] = Fluorescence emission at different viscosity conditions, diethanol-glycerol mixed solution (Test Example 2); format: physicochemical; settings: 1×10^−5 M, excited at 480 nm
[3] = test system: RNA aptamer; assay: Optical properties after binding to RNA aptamer (Test Example 4); format: biochemical; settings: for Em/nm / Ex/nm / ε / QY (−): after binding to RNA aptamer; for QY (−): relative method with Rhodamine 6G as the standard; for compound fluorescence after binding to RNA aptamer: excited at a suitable wavelength
[4] = test system: RNA aptamer; assay: Labeling intracellular RNA aptamer in cells (Test Example 4, FIG. 20A/20B); format: cell-based; settings: for fluorescence of cells expressing the RNA aptamer: FIG. 20A; for fluorescence of cells not expressing the RNA aptamer: FIG. 20B
Excerpt: FIGS. 20A and 20B are the application of molecular rotors IV-1, IV-2, IV-3, IV-4, IV-5, IV-6, IV-17, IV-18, IV-19, IV-20, IV-21, IV-22 in labeling intracellular RNA aptamer, wherein FIG. 20A are cells expressing the target RNA aptamer, and FIG. 20B are cells not expressing the target RNA aptamer;

Compound: CN1C(=O)/C(=C/c2cc(F)c(O)c(F)c2)N=C1/C=C/c1ccc(C#N)cc1 [IV-1]
- Glycerin/Methanol Fluorescence Intensity Ratio [1]: 987
- Maximum Excitation Wavelength (nm) [1]: 618 nm
- fluorescence intensity at different viscosity conditions [2]: gradually increasing fluorescence intensity
- Em/nm [3]: 618 nm
- Ex/nm [3]: 510 nm
- ε [3]: 20667 M⁻¹ cm⁻¹
- QY (−) [3]: 0.17
- compound fluorescence after binding to RNA aptamer [3]: noticeably activated
- fluorescence of cells expressing the RNA aptamer [4]: bright fluorescence
- fluorescence of cells not expressing the RNA aptamer [4]: no fluorescence

Compound: CN1C(=O)/C(=C/c2cc(F)c(O)c(F)c2)N=C1/C=C/c1cccc(C#N)c1 [IV-2]
- Glycerin/Methanol Fluorescence Intensity Ratio [1]: 687
- Maximum Excitation Wavelength (nm) [1]: 595 nm
- fluorescence intensity at different viscosity conditions [2]: gradually increasing fluorescence intensity
- Em/nm [3]: 595 nm
- Ex/nm [3]: 492 nm
- ε [3]: 25000 M⁻¹ cm⁻¹
- QY (−) [3]: 0.36
- compound fluorescence after binding to RNA aptamer [3]: noticeably activated
- fluorescence of cells expressing the RNA aptamer [4]: bright fluorescence
- fluorescence of cells not expressing the RNA aptamer [4]: no fluorescence

Compound: CN1C(=O)/C(=C/c2cc(F)c(O)c(F)c2)N=C1/C=C/c1ccc(O)cc1 [IV-3]
- Glycerin/Methanol Fluorescence Intensity Ratio [1]: 951
- Maximum Excitation Wavelength (nm) [1]: 565 nm
- fluorescence intensity at different viscosity conditions [2]: gradually increasing fluorescence intensity
- Em/nm [3]: 565 nm
- Ex/nm [3]: 490 nm
- ε [3]: 26000 M⁻¹ cm⁻¹
- QY (−) [3]: 0.27
- compound fluorescence after binding to RNA aptamer [3]: noticeably activated
- fluorescence of cells expressing the RNA aptamer [4]: bright fluorescence
- fluorescence of cells not expressing the RNA aptamer [4]: no fluorescence

Compound: CN1C(=O)/C(=C/c2cc(F)c(O)c(F)c2)N=C1/C=C/c1cccc(O)c1 [IV-4]
- Glycerin/Methanol Fluorescence Intensity Ratio [1]: 687
- Maximum Excitation Wavelength (nm) [1]: 574 nm
- fluorescence intensity at different viscosity conditions [2]: gradually increasing fluorescence intensity
- Em/nm [3]: 574 nm
- Ex/nm [3]: 490 nm
- ε [3]: 23333 M⁻¹ cm⁻¹
- QY (−) [3]: 0.37
- compound fluorescence after binding to RNA aptamer [3]: noticeably activated
- fluorescence of cells expressing the RNA aptamer [4]: bright fluorescence
- fluorescence of cells not expressing the RNA aptamer [4]: no fluorescence

Compound: CN1C(=O)/C(=C/c2cc(F)c(O)c(F)c2)N=C1/C=C/c1ccc(F)cc1 [IV-5]
- Glycerin/Methanol Fluorescence Intensity Ratio [1]: 861
- Maximum Excitation Wavelength (nm) [1]: 570 nm
- fluorescence intensity at different viscosity conditions [2]: gradually increasing fluorescence intensity
- Em/nm [3]: 570 nm
- Ex/nm [3]: 492 nm
- ε [3]: 23000 M⁻¹ cm⁻¹
- QY (−) [3]: 0.33
- compound fluorescence after binding to RNA aptamer [3]: noticeably activated
- fluorescence of cells expressing the RNA aptamer [4]: bright fluorescence
- fluorescence of cells not expressing the RNA aptamer [4]: no fluorescence

Compound: CN1C(=O)/C(=C/c2cc(F)c(O)c(F)c2)N=C1/C=C/c1cccc(F)c1 [IV-6]
- Glycerin/Methanol Fluorescence Intensity Ratio [1]: 921
- Maximum Excitation Wavelength (nm) [1]: 578 nm
- fluorescence intensity at different viscosity conditions [2]: gradually increasing fluorescence intensity
- Em/nm [3]: 578 nm
- Ex/nm [3]: 490 nm
- ε [3]: 24000 M⁻¹ cm⁻¹
- QY (−) [3]: 0.37
- compound fluorescence after binding to RNA aptamer [3]: noticeably activated
- fluorescence of cells expressing the RNA aptamer [4]: bright fluorescence
- fluorescence of cells not expressing the RNA aptamer [4]: no fluorescence

Compound: CN1C(=S)/C(=C/c2cc(F)c(O)c(F)c2)N=C1/C=C/c1ccc(F)cc1 [IV-7]
- Glycerin/Methanol Fluorescence Intensity Ratio [1]: 873
- Maximum Excitation Wavelength (nm) [1]: 570 nm

Compound: CN1C(=S)/C(=C/c2cc(F)c(O)c(F)c2)N=C1/C=C/c1ccc(C#N)cc1 [IV-8]
- Glycerin/Methanol Fluorescence Intensity Ratio [1]: 861
- Maximum Excitation Wavelength (nm) [1]: 638 nm

Compound: CN1C(=O)/C(=C/c2ccc(O)c(F)c2)N=C1/C=C/c1ccc(C#N)cc1 [IV-9]
- Glycerin/Methanol Fluorescence Intensity Ratio [1]: 697
- Maximum Excitation Wavelength (nm) [1]: 615 nm

Compound: CCN1C(=O)/C(=C/c2cc(F)c(O)c(Cl)c2)N=C1/C=C/c1ccc(C#N)cc1 [IV-10]
- Glycerin/Methanol Fluorescence Intensity Ratio [1]: 779
- Maximum Excitation Wavelength (nm) [1]: 620 nm

Compound: CCCN1C(=O)/C(=C/c2cc(F)c(O)c(I)c2)N=C1/C=C/c1ccc(Cl)cc1 [IV-12]
- Glycerin/Methanol Fluorescence Intensity Ratio [1]: 898
- Maximum Excitation Wavelength (nm) [1]: 573 nm

Compound: CN1C(=O)/C(=C/c2cc(Cl)c(O)c(Cl)c2)N=C1/C=C/c1ccc(Br)cc1 [IV-13]
- Glycerin/Methanol Fluorescence Intensity Ratio [1]: 711
- Maximum Excitation Wavelength (nm) [1]: 590 nm

Compound: CCN1C(=O)/C(=C/c2ccc(O)c(Cl)c2)N=C1/C=C/c1ccc(I)cc1 [IV-14]
- Glycerin/Methanol Fluorescence Intensity Ratio [1]: 699
- Maximum Excitation Wavelength (nm) [1]: 585 nm

Compound: CN1C(=O)/C(=C/c2ccc(O)c(Br)c2)N=C1/C=C/c1cccc(Cl)c1 [IV-15]
- Glycerin/Methanol Fluorescence Intensity Ratio [1]: 730
- Maximum Excitation Wavelength (nm) [1]: 586 nm

Compound: O=C1NC(/C=C/c2ccc(Br)cc2)=NC/1=C\c1cc(Cl)c(O)c(Cl)c1 [IV-16]
- Glycerin/Methanol Fluorescence Intensity Ratio [1]: 689
- Maximum Excitation Wavelength (nm) [1]: 595 nm

Compound: CN1C(=O)/C(=C/c2ccc(N(C)CCO)cc2)N=C1/C=C/c1cccc(O)c1 [IV-17]
- Glycerin/Methanol Fluorescence Intensity Ratio [1]: 655
- Maximum Excitation Wavelength (nm) [1]: 575 nm
- fluorescence intensity at different viscosity conditions [2]: gradually increasing fluorescence intensity
- Em/nm [3]: 582 nm
- Ex/nm [3]: 524 nm
- ε [3]: 32000 M⁻¹ cm⁻¹
- QY (−) [3]: 0.47
- compound fluorescence after binding to RNA aptamer [3]: noticeably activated
- fluorescence of cells expressing the RNA aptamer [4]: bright fluorescence
- fluorescence of cells not expressing the RNA aptamer [4]: no fluorescence

Compound: CN1C(=O)/C(=C/c2ccc(N(C)CCO)cc2)N=C1/C=C/c1cccc(C#N)c1 [IV-18]
- Glycerin/Methanol Fluorescence Intensity Ratio [1]: 890
- Maximum Excitation Wavelength (nm) [1]: 595 nm
- fluorescence intensity at different viscosity conditions [2]: gradually increasing fluorescence intensity
- Em/nm [3]: 600 nm
- Ex/nm [3]: 536 nm
- ε [3]: 25000 M⁻¹ cm⁻¹
- QY (−) [3]: 0.43
- compound fluorescence after binding to RNA aptamer [3]: noticeably activated
- fluorescence of cells expressing the RNA aptamer [4]: bright fluorescence
- fluorescence of cells not expressing the RNA aptamer [4]: no fluorescence

Compound: CN1C(=O)/C(=C/c2ccc(N(C)CCO)cc2)N=C1/C=C/c1cccc(F)c1 [IV-19]
- Glycerin/Methanol Fluorescence Intensity Ratio [1]: 821
- Maximum Excitation Wavelength (nm) [1]: 577 nm
- fluorescence intensity at different viscosity conditions [2]: gradually increasing fluorescence intensity
- Em/nm [3]: 590 nm
- Ex/nm [3]: 522 nm
- ε [3]: 30000 M⁻¹ cm⁻¹
- QY (−) [3]: 0.43
- compound fluorescence after binding to RNA aptamer [3]: noticeably activated
- fluorescence of cells expressing the RNA aptamer [4]: bright fluorescence
- fluorescence of cells not expressing the RNA aptamer [4]: no fluorescence

Compound: C=CCOCCN(C)c1ccc(/C=C2N=C(/C=C/c3ccccc3C#N)N(C)C\2=S)cc1 [IV-23]
- Glycerin/Methanol Fluorescence Intensity Ratio [1]: 915
- Maximum Excitation Wavelength (nm) [1]: 617 nm

Compound: CCCN1C(=S)/C(=C/c2ccc(N(C)C)nc2)N=C1/C=C/c1ccccc1F [IV-24]
- Glycerin/Methanol Fluorescence Intensity Ratio [1]: 934
- Maximum Excitation Wavelength (nm) [1]: 551 nm

Compound: CCCCCCN(CCCCCC)c1cnc(/C=C2N=C(/C=C/c3cccc(Cl)c3)N(C)C\2=O)cn1 [IV-25]
- Glycerin/Methanol Fluorescence Intensity Ratio [1]: 918
- Maximum Excitation Wavelength (nm) [1]: 591 nm

Compound: CN1C(=O)/C(=C/c2cnc(N(C)CCC#N)nc2)N=C1/C=C/c1ccccc1I [IV-26]
- Glycerin/Methanol Fluorescence Intensity Ratio [1]: 937
- Maximum Excitation Wavelength (nm) [1]: 555 nm

Compound: CCCN1C(=O)/C(=C/c2cc3c4c(c2)CCCN4CCC3)N=C1/C=C/c1ccc(C#N)cc1 [IV-27]
- Glycerin/Methanol Fluorescence Intensity Ratio [1]: 890
- Maximum Excitation Wavelength (nm) [1]: 600 nm

Compound: CN1C(=O)/C(=C/c2ccc(N(C)CCS(=O)(=O)O)cc2)N=C1/C=C/c1ccc(C#N)cc1 [IV-28]
- Glycerin/Methanol Fluorescence Intensity Ratio [1]: 942
- Maximum Excitation Wavelength (nm) [1]: 620 nm

Compound: COCCOCCOCCOCC(=O)OCCN(C)c1ccc(/C=C2N=C(/C=C/c3ccc(C#N)cc3)N(C)C\2=O)cc1 [IV-29]
- Glycerin/Methanol Fluorescence Intensity Ratio [1]: 829
- Maximum Excitation Wavelength (nm) [1]: 618 nm

Compound: COC(=O)CNCCN(C)c1ccc(/C=C2N=C(/C=C/c3ccc(Br)cc3)N(C)C\2=O)cc1 [IV-30]
- Glycerin/Methanol Fluorescence Intensity Ratio [1]: 921
- Maximum Excitation Wavelength (nm) [1]: 582 nm

Compound: CN1C(=O)/C(=C/c2ccc(N(C)CCN)cc2)N=C1/C=C/c1cccc(F)c1 [IV-31]
- Glycerin/Methanol Fluorescence Intensity Ratio [1]: 902
- Maximum Excitation Wavelength (nm) [1]: 581 nm

Compound: CN(C)CCN(C)c1ccc(/C=C2N=C(/C=C/c3cccc(F)c3)N(C)C\2=O)cc1 [IV-32]
- Glycerin/Methanol Fluorescence Intensity Ratio [1]: 999
- Maximum Excitation Wavelength (nm) [1]: 580 nm

Compound: CC1=CC(C)(C)N(C)c2ccc(/C=C3N=C(/C=C/c4ccc(C#N)cc4)N(C)C\3=O)cc21 [IV-33]
- Glycerin/Methanol Fluorescence Intensity Ratio [1]: 729
- Maximum Excitation Wavelength (nm) [1]: 605 nm

Compound: CN1C(=O)/C(=C/c2ccc3c(c2)OCCN3C)N=C1/C=C/c1ccc(F)cc1 [IV-34]
- Glycerin/Methanol Fluorescence Intensity Ratio [1]: 810
- Maximum Excitation Wavelength (nm) [1]: 603 nm

Compound: CN1C(=O)/C(=C/c2ccc(N)cc2)N=C1/C=C/c1ccc(C#N)cc1 [IV-35]
- Glycerin/Methanol Fluorescence Intensity Ratio [1]: 776
- Maximum Excitation Wavelength (nm) [1]: 561 nm

Compound: CN1C(=O)/C(=C/c2ccc3cc(N(C)CCO)ccc3c2)N=C1/C=C/c1cccc(O)c1 [IV-36]
- Glycerin/Methanol Fluorescence Intensity Ratio [1]: 792
- Maximum Excitation Wavelength (nm) [1]: 690 nm

Compound: C#CCOCCN(C)c1ccc(/C=C2N=C(/C=C/c3ccc(F)cc3)N(C)C\2=O)cc1 [IV-37]
- Glycerin/Methanol Fluorescence Intensity Ratio [1]: 801
- Maximum Excitation Wavelength (nm) [1]: 580 nm

Compound: CN1C(=O)/C(=C/c2cnc3cc(N(C)C)ccc3c2)N=C1/C=C/c1cccc(C#N)c1 [IV-38]
- Glycerin/Methanol Fluorescence Intensity Ratio [1]: 529
- Maximum Excitation Wavelength (nm) [1]: 705 nm
